Data taken from patent US20080194877A1, “Benzamidine Derivatives for Treatment and Prevention of Cancer Therapy Induced Mucositis” ([…].p.A., priority 2005, published 2008).
“And” between values parts separate entries of the source, which are not always exact repeats. Equal values may be shown once. Read-outs that look alike come from different tables or passages of the source.

Key:
[1] = 25° C.
TNFα = assay: LPS-induced TNFα release in rat peritoneal macrophages; type: cell-based; conditions: LPS 1 μg/ml, 24 h
Description: (§1) Background to the assay: Nuclear factor-κB (NF-κB), a key element in the genesis of mucositis, has the capacity to upregulate a large panel of genes, including those that result in the production of pro-inflammatory cytokines, TNFα, IL-1 and IL-6, all leading to apoptosis and tissue injury, and to up-regulate genes that can cause the expression of iNOS and cyclooxygnase-2. The third phase of mucositis is indeed characterized by the amplification of signaling triggered by pro-inflammatory cytokines. The effect of compound 1.1 was assessed in rat peritoneal macrophages.
(§2) Primary cell cultures were obtained from male albino rats (SD, 200-250 g, Harlan, Italy), as described in Methods in Enzymology (Methods in Enzymology, vol. LVIII, pages 494-506). Cells were stimulated, the day after plating, with LPS, 1 μg/ml or 0.1 μg/ml as stated, for 24 h. Compounds were added 20 min before stimulation. The stimulation was performed in DMEM, 1 g/l glucose, 50 μg/ml gentamicin. Supernatants and cell lysates were collected and stored at −80° C. until use. Cytokine quantisation in supernatants was determined by means of commercially available ELISA Kits for rat TNFα, rat IL-1β and rat IL-6 (Amersham).
(§3) Activation of macrophages with 1 μg/ml LPS induced an increase over basal in cytokine production.

IL-1β = assay: LPS-induced IL-1β release in rat peritoneal macrophages; type: cell-based; conditions: LPS 1 μg/ml, 24 h
Description: as §1, §2, §3

COX-2 protein expression = assay: LPS-induced COX-2 protein expression in rat macrophages (Western blot); type: cell-based; conditions: 30 μM; LPS 0.1 μg/ml, 24 h
Protocol: as §2
(§4) Western blot analysis of iNOS and COX-2: Cell lysates were analyzed by SDS-PAGE. Proteins were transferred onto PVDF membranes and saturated in blocking buffer. Membranes were incubated for 2 h at RT with the following antibodies: anti-COX-2, anti-iNOS, anti-β-actin and further incubated with a secondary antibody for 45 min at RT. Detection was performed using ECL (Amersham). Quantisation was determined by densitometry analysis using NIH Image software.
(§5) Evaluation of mediator of inflammation such as iNOS and COX-2, was performed in macrophages stimulated with 0.1 μg/ml LPS for 24 h. […]

[2] = system: ROS generation in human PMNL; assay: Inhibition of luminol-dependent chemiluminescence (ROS generation) in PMA-activated human PMNL; type: cell-based; conditions: for IC50: 0.1 μM PMA
Protocol: Background to the assay: One of the most important events involved in the intracellular cascade leading to NF-kB activation is the generation of oxidative stress and the increase of ROS; the inhibition of these species can contribute to reduce the direct damage to DNA and subsequent clonogenic cell death, and also to diminish the transcription factors activation. The effect of compound 1.1 on luminol-dependent chemiluminescence assay was assessed in human PMNL.
Human neutrophils were obtained from healthy volunteers. Blood was anti-coagulated with Na-Citrate 0.38% and neutrophils were purified according to Boyum (Boyum A. Scand J Clin Invest 1968;21:77-89). The neutrophil purification was achieved by gradient centrifugation on Histo-paque at 400 g for 30 min. Resulting neutrophils were suspended in PBS plus 0.87 mM CaCl2, 1 mM MgCl2, counted, and diluted to 2.5×10^6/ml. Neutrophil suspension was premixed with luminol (5 μM final). A 200 μl-aliquot of cell suspension was incubated into a 96-well plate, with drugs for 10 min at 37° C. Neutrophils were activated with 0.1 μM phorbol 12-myristate 13-acetate (PMA) and the light emission was monitored at 3 min intervals for 24 min in a HTS7000 plus microplate reader. Results were expressed as reduction of the fluorescent signal recorded for cell activated with PMA alone.
Activation of neutrophils with 0.1 μM PMA induced a time-dependent increase in signal luminescence, with a maximal increase within 10-12 min. […] The data are illustrated in FIG. 1.

rat gastric mucosa = assay: Gastric ulcer induced by indomethacin in rat; type: in vivo
Description: Indomethacin induces the formation of acute gastric mucosal lesions. The histologic damage is represented by necrosis with loss of surface epithelium, submucosal oedema and leukocyte infiltration. The mechanism involves a neutrophil-dependent process inducing a variety of inflammatory mediators such as reactive oxygen species, and direct detrimental action by indomethacin on processes linked to epithelial proliferation and apoptosis. The epithelial repairing process is due to continuity of epithelial cells with healthy cells of gastric pits that can migrate to the basement membrane; re-epithelialization and reconstruction of the mucosal architecture is under the control of growth factors produced locally by regenerating cells.
20 male SD rats (140-160) were used. The animals were deprived of food but not water 24 hours prior the experiment. Gastric ulcer was induced in conscious rats by oral administration of 10 mg/kg/4 ml of indomethacin, suspended in methylcellulose 0.5%. The tested drug was administered 30 min by gavage (os), or 15 min by subcutaneously (sc), before indomethacin.
Four hours after indomethacin administration, the animals were sacrificed by excess of ether. The stomach was dissected out, opened along the greater curvature, and the mucosa was examined by an observer who was unaware of the treatment given. The extent of ulcers was measured with a 10× binocular fitted with a 0.1 mm-division scale. Data are presented as total length of ulcers per group.
The animals were divided into 4 groups of 5 animals, and were treated as follows:
Groups: • 1. 10 mg/kg Compound 1.1, administered prior to 10 mg/kg indomethacin, os. • 2. 5 mg/kg Compound 1.1, administered prior to 10 mg/kg indomethacin, os. • 3. 1 mg/kg Compound 1.1, administered prior to 10 mg/kg indomethacin, os. • 4. vehicle, administered prior to 10 mg/kg indomethacin, os.
Compound 1.1 was given at 1, 5 and 10 mg/kg prior to indomethacin. […] In Compound 1.1 treated groups the levels of ulcerated animals decreased dose-dependently.

[3] = system: clonogenic crypt cells of the small intestine; assay: Mouse mucositis model (clonogenic crypt cell death induced by whole body irradiation); type: in vivo; conditions: for crypt width (μm) / no. crypts/circumference: average +/− sd; for corrected crypts/circumference: corrected for crypt width
Description: There are thought to be between four and sixteen actual stem cells in each crypt of the small intestine. There are also a further reserve of clonogenic cells which are capable of regenerating the crypt when all the actual stem cells have been killed. The survival of these clonogenic cells is therefore key to the survival of the crypt and the restoration of an intact epithelial lining following cytotoxic injury (only one clonogenic cell needs to survive to ensure the survival of the crypt, and therefore the maintenance of an intact epithelium). Growth factors and other molecules can be used to manipulate the sensitivity of these cells to cytotoxic agents, and thereby reduce the severity of gastrointestinal and oral mucositis. Factors given prior to a cytotoxic insult may increase clonogenic cell number (thereby increasing the probability of clonogen survival) or act to arrest the cell cycle in such cells (thereby making them more resistant to damage or death). […] A combination of both protocols could give maximum protection to the epithelium.
The effects of administration for 3 days before radiation exposure were tested.
30 adult male BDF1 mice (aged 10-12 weeks) were used. The animals were housed for 2 weeks in individually ventilated cages on a 12 hr light:dark cycle to stabilize the circadian rhythm. Animals were allowed food and water ad libitum throughout.
The animals were divided into 5 groups of 6 animals, and were treated as follows:
Groups: • 1. Gavage 20 mg/kg Compound 1.1 72, 48 and 24 hrs prior to 13Gy X-ray exposure (whole body). • 2. Gavage 10 mg/kg Compound 1.1 72, 48 and 24 hrs prior to 13Gy X-ray exposure (whole body). • 3. Gavage 5 mg/kg Compound 1.1 72, 48 and 24 hrs prior to 13Gy X-ray exposure (whole body). • 4. Gavage vehicle 72, 48 and 24 hrs prior to 13Gy X-ray exposure (whole body). • 5. Untreated, un-irradiated controls.
Intestinal damage was induced using a single dose of 13Gy X-irradiation. Four days after irradiation the animals were sacrificed. The small intestine was removed and fixed in Carnoy's fixative prior to processing for histological analysis. 3 μm sections were cut and stained with haematoxylin and eosin. Foci of regeneration (surviving crypts with one or more clonogenic cells) were clearly visible in the irradiated sections. Other than these foci the mesenchyme was entirely denuded; these animals would develop diarrhea and die due to mucositis if allowed to live beyond four days.
For each animal ten intestinal circumferences were analyzed (60 per group)—a circumference is equivalent to a given length of intestine and therefore a convenient baseline unit of length. The number of surviving crypts per circumference was scored and the average per group determined. Only crypts containing 10 or more strongly haematoxylin and eosin stained cells (excluding Paneth cells) and only intact circumferences not containing Peyers patches were scored (Peyers patches influence both the number of crypts in a normal circumference and the ability of a crypt to survive insult).
The average crypt width (measured at its widest point) was also measured in order to correct for scoring errors due to crypt size difference. The correction is applied thus: Corrected number of crypts/circumference=

iNOs protein expression = assay: LPS-induced iNOS protein expression in rat macrophages (Western blot); type: cell-based; conditions: 30 μM; LPS 0.1 μg/ml, 24 h
Protocol: as §2, §4, §5

IL-6 = assay: LPS-induced IL-6 release in rat peritoneal macrophages; type: cell-based; conditions: LPS 1 μg/ml, 24 h
Description: as §1, §2, §3

[4] = 5 mg/kg, both administration protocols (os, sc)
[5] = 5 mg/kg gavage for 3 days pre 13Gy irradiation
[6] = 10 mg/kg gavage for 3 days pre 13Gy irradiation
[7] = 20 mg/kg gavage for 3 days pre 13Gy irradiation

CCCCCNC(=S)Nc1ccc(NC(C)=N)cc1.O=C(O)/C=C\C(=O)O [Maleate, N-[4-(N-acetamidine)phenyl]-N′-pentyl thiourea maleate]
Solubility in water [1]: 3.12 mg/mL | Solubility in water (%) [1]: 0.31%

CCCCCNC(=S)Nc1ccc(NC(C)=N)cc1 [Compound 1.1, N-[4-(N-acetamidine)phenyl]-N′-pentyl thiourea]
IC50 (TNFα): 54 µM | IC50 (IL-1β): 30 µM | % of inhibition COX-2 protein expression (COX-2 protein expression): 53% | % of inhibition of chemiluminescence ([2]; 1 μM): 20% | Inhibition of ROS generation ([2]; 30 μM (data not shown)): completely inhibited ROS generation | IC50 ([2]; rising phase, at 15 min, read-out: IC50 luminol-enhanced chemiluminescence, rising phase): 6.4 ± 0.6 µM | IC50 ([2]; steady phase, at 24 min, read-out: IC50 luminol-enhanced chemiluminescence, steady phase): 2.9 ± 0.2 µM | Effectiveness against ulcer at the lower dose (rat gastric mucosa; 1 mg/kg): effective only in the os protocol administration | Reduction of extent of ulceration (rat gastric mucosa; 5 mg/kg): 80-90% | Incidence of ulcer (animals per group) (rat gastric mucosa; [4]): 3/5 | Incidence of ulcer reduced to (rat gastric mucosa; [4]): ~50% | Ulcerated animals (maximal effect) (rat gastric mucosa; 10 mg/kg prior to 10 mg/kg indomethacin): no animals ulcerated | Survival and adverse effects (rat gastric mucosa; rat, 1, 5 and 10 mg/kg): no obvious adverse effects | crypt width (μm) [3, 5]: 68.54 +/− 6.6 μm | no. crypts/circumference [3, 5]: 9.6 +/− 3.4 | corrected crypts/circumference [3, 5]: 4.7 +/− 1.3 | crypt width (μm) [3, 6]: 68.25 +/− 2.4 μm | no. crypts/circumference [3, 6]: 9.2 +/− 4.7 | corrected crypts/circumference [3, 6]: 4.5 +/− 2.4 | Increase of crypt survival versus vehicle ([3]; 20 mg/kg): 1.9 × | crypt width (μm) [3, 7]: 66.19 +/− 3.0 μm | no. crypts/circumference [3, 7]: 13.2 +/− 5.7 | corrected crypts/circumference [3, 7]: 6.7±3.0 and 6.7 +/− 3.0 | Circumferences without surviving crypt ([3]; 20 mg/kg, 4% of circumference in vehicle treated mouse): prevented the absence of surviving crypt | Increase of crypt survival versus vehicle ([3]; lower doses (5 and 10 mg/kg)): about 1.3 times | Survival and adverse effects ([3]; mouse, 5, 10 and 20 mg/kg): no obvious adverse effects | % of inhibition iNOs protein expression (iNOs protein expression): 79% | IC50 (IL-6): 63 µM

CCCCCNC(=S)Nc1ccc(NC(C)=N)cc1.CS(=O)(=O)O [Methanesulphonate, N-[4-(N-acetamidine)phenyl]-N′-pentyl thiourea methanesulphonate]
Solubility in water [1]: >32 mg/mL | Solubility in water (%) [1]: >32%
